Data set [1] has as its target Phosphatidylinositol 4,5-bisphosphate 3-kinase catalytic subunit gamma isoform (Homo sapiens, UniProt P48736). Briefly: Inhibition of PI3Kgamma (unknown origin) by ADP-glo plus luminescence assay. Background: ADP-Glo turns the ADP formed in a reaction into a luminescent signal.
In data set [2] the target is T1, Phosphatidylinositol 4,5-bisphosphate 3-kinase catalytic subunit delta isoform (Homo sapiens, UniProt O00329).
T1 sequence (O00329 whole entry): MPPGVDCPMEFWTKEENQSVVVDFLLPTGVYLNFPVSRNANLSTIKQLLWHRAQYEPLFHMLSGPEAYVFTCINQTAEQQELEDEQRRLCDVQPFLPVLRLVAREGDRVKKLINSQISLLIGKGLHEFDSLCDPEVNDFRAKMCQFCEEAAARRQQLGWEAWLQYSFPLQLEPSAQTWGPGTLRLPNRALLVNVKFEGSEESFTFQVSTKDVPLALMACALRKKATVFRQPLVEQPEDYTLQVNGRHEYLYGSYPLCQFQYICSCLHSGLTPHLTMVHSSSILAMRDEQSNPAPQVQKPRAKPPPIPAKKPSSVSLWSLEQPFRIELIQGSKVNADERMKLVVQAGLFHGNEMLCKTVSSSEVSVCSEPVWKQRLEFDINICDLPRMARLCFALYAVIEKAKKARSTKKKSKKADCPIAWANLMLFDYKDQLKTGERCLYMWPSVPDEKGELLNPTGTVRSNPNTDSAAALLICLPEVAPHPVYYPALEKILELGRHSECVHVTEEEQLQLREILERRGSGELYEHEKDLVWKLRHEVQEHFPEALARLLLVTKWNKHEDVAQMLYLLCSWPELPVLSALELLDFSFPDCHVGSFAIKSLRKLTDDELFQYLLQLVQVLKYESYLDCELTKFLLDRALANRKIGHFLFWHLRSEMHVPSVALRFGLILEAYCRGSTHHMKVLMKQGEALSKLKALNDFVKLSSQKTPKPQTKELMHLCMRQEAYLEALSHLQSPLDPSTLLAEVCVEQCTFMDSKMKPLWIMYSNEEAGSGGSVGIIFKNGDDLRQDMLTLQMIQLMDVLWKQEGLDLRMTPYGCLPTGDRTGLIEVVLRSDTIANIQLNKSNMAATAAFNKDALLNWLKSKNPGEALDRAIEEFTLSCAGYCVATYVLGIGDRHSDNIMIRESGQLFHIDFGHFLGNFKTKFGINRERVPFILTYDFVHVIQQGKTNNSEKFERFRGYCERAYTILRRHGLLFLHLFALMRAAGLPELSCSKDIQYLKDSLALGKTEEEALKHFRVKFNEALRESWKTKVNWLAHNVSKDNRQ

For data set [3], the target named is Phosphatidylinositol 4,5-bisphosphate 3-kinase catalytic subunit beta isoform (Homo sapiens, UniProt P42338).
Chain of Phosphatidylinositol 4,5-bisphosphate 3-kinase catalytic subunit beta isoform (P42338 whole entry, canonical isoform): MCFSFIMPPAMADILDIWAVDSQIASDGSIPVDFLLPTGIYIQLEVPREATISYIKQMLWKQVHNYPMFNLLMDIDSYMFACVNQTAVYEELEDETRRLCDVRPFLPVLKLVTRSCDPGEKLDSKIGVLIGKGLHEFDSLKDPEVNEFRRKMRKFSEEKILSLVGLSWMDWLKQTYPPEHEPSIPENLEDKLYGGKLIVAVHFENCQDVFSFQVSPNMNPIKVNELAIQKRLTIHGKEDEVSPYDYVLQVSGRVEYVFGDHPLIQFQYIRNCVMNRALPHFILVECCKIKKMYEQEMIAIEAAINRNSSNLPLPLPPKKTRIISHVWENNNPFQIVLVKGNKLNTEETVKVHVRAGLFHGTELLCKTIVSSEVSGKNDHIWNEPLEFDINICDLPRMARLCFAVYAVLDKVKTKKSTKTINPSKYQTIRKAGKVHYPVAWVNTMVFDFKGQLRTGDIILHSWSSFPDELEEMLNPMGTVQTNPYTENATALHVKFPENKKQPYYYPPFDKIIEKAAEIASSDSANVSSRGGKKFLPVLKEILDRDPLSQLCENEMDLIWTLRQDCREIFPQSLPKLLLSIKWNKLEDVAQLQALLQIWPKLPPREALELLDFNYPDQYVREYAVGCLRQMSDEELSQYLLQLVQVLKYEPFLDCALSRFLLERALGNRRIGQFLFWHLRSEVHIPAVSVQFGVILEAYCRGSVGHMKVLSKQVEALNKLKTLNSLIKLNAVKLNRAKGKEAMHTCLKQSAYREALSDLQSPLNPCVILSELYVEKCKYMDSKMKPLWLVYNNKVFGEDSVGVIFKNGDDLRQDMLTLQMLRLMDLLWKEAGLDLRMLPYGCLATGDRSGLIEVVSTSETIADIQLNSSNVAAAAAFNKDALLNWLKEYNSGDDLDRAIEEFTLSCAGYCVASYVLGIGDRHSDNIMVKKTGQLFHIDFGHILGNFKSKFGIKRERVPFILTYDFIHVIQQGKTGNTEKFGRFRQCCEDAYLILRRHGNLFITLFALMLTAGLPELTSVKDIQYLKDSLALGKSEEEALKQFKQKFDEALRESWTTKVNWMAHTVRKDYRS
Data set [4] has as its target Serine/threonine-protein kinase mTOR (Homo sapiens, UniProt P42345).
Data set [5] has as its target Phosphatidylinositol 4,5-bisphosphate 3-kinase catalytic subunit alpha isoform (Homo sapiens, UniProt P42336). Briefly: Inhibition of PI3Kalpha (unknown origin) by ADP-glo plus luminescence assay.
In data set [6] the target is Cytochrome P450 2D6 (Homo sapiens, UniProt P10635). Briefly: Inhibition of CYP2D6 (unknown origin). The data set is classed as ADME.
Chain of Cytochrome P450 2D6 (P10635 whole entry): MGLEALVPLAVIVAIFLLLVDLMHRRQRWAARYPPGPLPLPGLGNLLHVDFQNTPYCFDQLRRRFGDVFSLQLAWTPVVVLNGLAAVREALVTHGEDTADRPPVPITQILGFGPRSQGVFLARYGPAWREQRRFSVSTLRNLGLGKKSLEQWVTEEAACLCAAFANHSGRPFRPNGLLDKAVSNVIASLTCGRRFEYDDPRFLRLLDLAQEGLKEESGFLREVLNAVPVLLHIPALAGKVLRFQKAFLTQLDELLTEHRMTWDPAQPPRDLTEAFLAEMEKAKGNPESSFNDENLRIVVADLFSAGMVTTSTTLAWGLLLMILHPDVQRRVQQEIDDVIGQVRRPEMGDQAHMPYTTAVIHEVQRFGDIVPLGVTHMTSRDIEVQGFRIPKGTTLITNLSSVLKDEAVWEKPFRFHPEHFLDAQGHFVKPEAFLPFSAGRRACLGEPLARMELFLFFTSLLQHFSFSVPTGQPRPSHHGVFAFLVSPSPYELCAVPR
The target in data set [7] is Cytochrome P450 3A4 (Homo sapiens, UniProt P08684). As to the kind of experiment: Inhibition of CYP3A4-M (unknown origin). The data set is classed as ADME.
Chain of Cytochrome P450 3A4 (P08684 whole entry): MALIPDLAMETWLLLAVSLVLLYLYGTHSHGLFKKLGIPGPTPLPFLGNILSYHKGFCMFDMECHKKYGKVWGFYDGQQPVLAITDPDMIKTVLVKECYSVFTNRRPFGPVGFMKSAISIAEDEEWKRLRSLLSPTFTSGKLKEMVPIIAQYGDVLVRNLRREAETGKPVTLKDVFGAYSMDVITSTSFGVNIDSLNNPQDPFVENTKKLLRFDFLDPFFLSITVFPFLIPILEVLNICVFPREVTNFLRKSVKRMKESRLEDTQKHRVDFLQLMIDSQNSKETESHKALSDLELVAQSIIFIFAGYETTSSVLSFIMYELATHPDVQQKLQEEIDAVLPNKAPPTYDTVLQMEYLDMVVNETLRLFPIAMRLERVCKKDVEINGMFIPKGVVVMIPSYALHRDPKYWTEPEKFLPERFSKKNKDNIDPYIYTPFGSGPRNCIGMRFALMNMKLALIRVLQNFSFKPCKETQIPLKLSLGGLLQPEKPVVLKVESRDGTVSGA
Data set [8] addresses Voltage-gated inwardly rectifying potassium channel KCNH2 (Homo sapiens, UniProt Q12809). Briefly: Inhibition of hERG. The data set is classed as toxicity. (In general: The hERG channel carries a current that helps repolarise heart muscle cells.)
In data set [9] the target is T2, Cytochrome P450 1A2 (Homo sapiens, UniProt P05177).
T2 sequence (P05177 whole entry): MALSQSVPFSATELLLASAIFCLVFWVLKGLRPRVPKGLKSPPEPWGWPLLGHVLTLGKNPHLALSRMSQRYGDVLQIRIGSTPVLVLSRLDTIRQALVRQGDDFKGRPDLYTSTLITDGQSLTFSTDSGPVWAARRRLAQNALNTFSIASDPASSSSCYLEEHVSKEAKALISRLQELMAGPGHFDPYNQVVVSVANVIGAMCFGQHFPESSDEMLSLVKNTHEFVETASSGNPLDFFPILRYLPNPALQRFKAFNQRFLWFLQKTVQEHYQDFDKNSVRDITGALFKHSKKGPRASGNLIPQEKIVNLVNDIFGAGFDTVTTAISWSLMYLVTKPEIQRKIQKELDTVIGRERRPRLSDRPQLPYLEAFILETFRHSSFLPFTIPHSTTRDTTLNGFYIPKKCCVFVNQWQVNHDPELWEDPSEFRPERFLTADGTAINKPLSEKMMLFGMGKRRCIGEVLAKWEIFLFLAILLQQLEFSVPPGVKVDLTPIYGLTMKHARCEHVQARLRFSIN
As to the kind of experiment: Inhibition of CYP1A2 (unknown origin). The data set is classed as ADME.

Data set [10] deals with Cytochrome P450 2C19 (Homo sapiens, UniProt P33261). Briefly: Inhibition of CYP2C19 (unknown origin). The data set is classed as ADME.
Chain of Cytochrome P450 2C19 (P33261 whole entry): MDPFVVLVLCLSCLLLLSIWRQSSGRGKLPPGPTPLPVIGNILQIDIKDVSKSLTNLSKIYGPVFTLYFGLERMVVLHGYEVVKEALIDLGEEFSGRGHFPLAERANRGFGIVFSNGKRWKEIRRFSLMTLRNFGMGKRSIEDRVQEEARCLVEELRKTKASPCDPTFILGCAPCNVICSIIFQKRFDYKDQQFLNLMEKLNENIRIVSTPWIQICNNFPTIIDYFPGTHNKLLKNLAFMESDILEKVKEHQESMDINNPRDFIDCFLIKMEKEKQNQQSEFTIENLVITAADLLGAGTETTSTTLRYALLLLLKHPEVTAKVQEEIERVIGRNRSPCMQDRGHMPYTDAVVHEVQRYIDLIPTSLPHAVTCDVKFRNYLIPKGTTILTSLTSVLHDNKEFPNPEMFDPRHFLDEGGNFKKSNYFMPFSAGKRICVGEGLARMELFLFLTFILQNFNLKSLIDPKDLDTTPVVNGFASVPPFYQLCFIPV
Data set [11] has as its target Cytochrome P450 2C9 (Homo sapiens, UniProt P11712). Briefly: Inhibition of CYP2C9 (unknown origin). Type of data set: ADME.
Data set [12] concerns MCF7. As to the kind of experiment: Antiproliferative activity against human MCF7 cells assessed as inhibition of cell growth incubated for 48 hrs by CCK-8 assay. Type of data set: functional, cell-based. The settings on record: MCF7, 48 h. For orientation: Formazan colour is commonly taken as a measure of viable cells.
Data set [13] in a line: Antiproliferative activity against human L02 cells assessed as inhibition of cell growth incubated for 48 hrs by CCK-8 assay. Type of data set: toxicity, cell-based.
Data set [14] is described as follows: Selectivity index, ratio of IC50 for antiproliferative activity against human L02 cells assessed as inhibition of cell growth to IC50 for antiproliferative activity against human HepG2 cells assessed as inhibition of cell growth. Type of data set: toxicity, cell-based. The settings on record: L02 cells versus HepG2 cells, read-out: Ratio IC50.
The test system of data set [15] is CNE-2. Briefly: Antiproliferative activity against human CNE-2 cells assessed as inhibition of cell growth incubated for 48 hrs by CCK-8 assay. Type of data set: functional, cell-based. The settings on record: CNE-2, 48 h.
For data set [16], the system named is HCT-116. Briefly: Antiproliferative activity against human HCT-116 cells assessed as inhibition of cell growth incubated for 48 hrs by CCK-8 assay. The data set is classed as functional, cell-based. The settings on record: HCT-116, 48 h.
The subject of data set [17] is HeLa. As to the kind of experiment: Antiproliferative activity against human HeLa cells assessed as inhibition of cell growth incubated for 48 hrs by CCK-8 assay. The data set is classed as functional, cell-based.
The subject of data set [18] is MDA-MB-231. As to the kind of experiment: Antiproliferative activity against human MDA-MB-231 cells assessed as inhibition of cell growth incubated for 48 hrs by CCK-8 assay. Type of data set: functional, cell-based. The settings on record: MDA-MB-231, 48 h.
Data set [19] relates to HepG2. Briefly: Antiproliferative activity against human HepG2 cells assessed as inhibition of cell growth incubated for 48 hrs by CCK-8 assay. The data set is classed as functional, cell-based. The settings on record: HepG2, 48 h.

The text below walks through data of ChEMBL document CHEMBL5543164 (J Med Chem, 2024).

Chain of Phosphatidylinositol 4,5-bisphosphate 3-kinase catalytic subunit gamma isoform (P48736 whole entry, canonical isoform): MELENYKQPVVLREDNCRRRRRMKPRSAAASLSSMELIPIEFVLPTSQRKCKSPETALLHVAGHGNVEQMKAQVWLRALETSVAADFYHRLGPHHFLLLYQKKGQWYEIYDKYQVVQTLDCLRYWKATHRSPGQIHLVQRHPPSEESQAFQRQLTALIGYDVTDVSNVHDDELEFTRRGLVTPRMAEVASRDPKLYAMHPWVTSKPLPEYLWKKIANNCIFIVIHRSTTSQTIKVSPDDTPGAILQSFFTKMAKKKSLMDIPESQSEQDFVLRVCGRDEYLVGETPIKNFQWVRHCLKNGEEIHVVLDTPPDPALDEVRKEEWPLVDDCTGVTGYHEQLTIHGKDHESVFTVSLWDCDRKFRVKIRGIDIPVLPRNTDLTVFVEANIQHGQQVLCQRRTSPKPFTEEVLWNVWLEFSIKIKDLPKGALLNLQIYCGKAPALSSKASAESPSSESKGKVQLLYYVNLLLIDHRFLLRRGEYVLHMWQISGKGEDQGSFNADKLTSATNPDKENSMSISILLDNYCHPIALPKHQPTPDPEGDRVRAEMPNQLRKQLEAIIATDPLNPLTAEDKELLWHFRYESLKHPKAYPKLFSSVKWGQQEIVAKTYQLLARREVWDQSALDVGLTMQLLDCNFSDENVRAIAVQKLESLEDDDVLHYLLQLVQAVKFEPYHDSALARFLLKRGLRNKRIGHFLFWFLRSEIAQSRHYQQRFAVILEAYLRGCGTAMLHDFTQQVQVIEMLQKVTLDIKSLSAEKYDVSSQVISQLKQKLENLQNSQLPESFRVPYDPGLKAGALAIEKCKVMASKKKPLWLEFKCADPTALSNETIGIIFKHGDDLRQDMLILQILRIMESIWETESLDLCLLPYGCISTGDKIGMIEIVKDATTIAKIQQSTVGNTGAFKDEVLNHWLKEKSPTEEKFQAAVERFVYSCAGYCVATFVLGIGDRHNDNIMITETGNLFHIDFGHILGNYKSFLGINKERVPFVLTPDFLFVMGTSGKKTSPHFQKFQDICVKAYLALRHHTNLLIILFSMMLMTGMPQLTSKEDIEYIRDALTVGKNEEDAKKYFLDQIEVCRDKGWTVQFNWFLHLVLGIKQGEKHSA
Chain of Phosphatidylinositol 4,5-bisphosphate 3-kinase catalytic subunit alpha isoform (P42336 whole entry, canonical isoform): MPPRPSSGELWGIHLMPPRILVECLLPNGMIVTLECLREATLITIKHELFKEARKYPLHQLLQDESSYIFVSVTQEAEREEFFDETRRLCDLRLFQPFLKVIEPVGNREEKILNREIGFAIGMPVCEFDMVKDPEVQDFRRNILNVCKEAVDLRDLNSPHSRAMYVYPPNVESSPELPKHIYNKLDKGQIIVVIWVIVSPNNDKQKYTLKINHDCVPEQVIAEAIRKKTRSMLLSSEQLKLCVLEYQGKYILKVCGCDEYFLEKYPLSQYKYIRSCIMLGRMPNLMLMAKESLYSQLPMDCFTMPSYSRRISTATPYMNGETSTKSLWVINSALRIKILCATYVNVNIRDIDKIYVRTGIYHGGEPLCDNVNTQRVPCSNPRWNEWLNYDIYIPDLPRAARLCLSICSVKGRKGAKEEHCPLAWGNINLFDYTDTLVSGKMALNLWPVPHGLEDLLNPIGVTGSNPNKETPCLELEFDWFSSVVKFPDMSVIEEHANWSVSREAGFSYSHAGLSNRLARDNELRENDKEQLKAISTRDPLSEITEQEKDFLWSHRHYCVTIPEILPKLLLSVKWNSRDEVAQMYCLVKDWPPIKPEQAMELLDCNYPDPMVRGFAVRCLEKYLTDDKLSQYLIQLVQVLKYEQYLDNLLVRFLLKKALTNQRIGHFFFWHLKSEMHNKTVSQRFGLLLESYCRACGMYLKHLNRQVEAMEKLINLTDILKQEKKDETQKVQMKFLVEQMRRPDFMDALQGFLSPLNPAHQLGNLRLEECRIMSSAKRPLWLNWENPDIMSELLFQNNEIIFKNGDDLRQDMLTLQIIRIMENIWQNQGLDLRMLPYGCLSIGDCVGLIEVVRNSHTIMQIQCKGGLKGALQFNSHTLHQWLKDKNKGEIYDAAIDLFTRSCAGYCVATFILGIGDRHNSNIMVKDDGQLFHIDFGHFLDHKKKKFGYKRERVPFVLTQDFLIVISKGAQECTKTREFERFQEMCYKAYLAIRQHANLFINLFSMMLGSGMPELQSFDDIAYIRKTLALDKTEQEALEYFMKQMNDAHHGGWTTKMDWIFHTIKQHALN

As a reminder, the IC50 is the concentration that inhibits the measured activity by half. Consider `O=C(Nc1ccc(-c2nc(N3CCOCC3)nc(N3CCO[C@H](CO)C3)n2)cc1)Nc1ccc2c(c1)COC2=O`, for which the results for the IC50 in data set [1], in [2] and in data set [3] were 228 nM, 161 nM and 93 nM, respectively.

As for `O=C(Nc1ccc(-c2nc(N3CCOCC3)nc(N3CC4CCC(C3)O4)n2)cc1)Nc1ccc2c(c1)COC2=O`, half-maximal inhibition in [4] (IC50) was put at 4.6 nM.

For the compound `CC(C)(C)OC(=O)N1CC2CCC(C1)N2c1nc(-c2ccc(NC(=O)Nc3ccc4c(c3)COC4=O)cc2)nc(N2CCOCC2)n1`, half-maximal inhibition in [4] (IC50) was put at 147 nM.

Consider `CC1OC(=O)c2cc(NC(=O)Nc3ccc(-c4nc(N5CCOCC5)nc(N5CCOCC5)n4)cc3)ccc21` (configuration not stated), for which the IC50 in data set [4] was 7.2 nM; in data set [5], 45.4 nM.

Regarding `O=C(Nc1ccc(-c2nc(N3CCOCC3)nc(N3CCOCC3)n2)cc1)Nc1ccc2c(c1)CNC2=O`, the IC50 in data set [1] is 25.5 nM; in data set [2] it was 98.3 nM; in data set [3] it was 162 nM.

Regarding `C[C@H]1COCCN1c1nc(-c2ccc(NC(=O)Nc3ccc4c(c3)COC4=O)cc2)nc(N2CCOCC2)n1`, the figures for the IC50 in data set [1], in data set [2] and in data set [3] were 725 nM, 1320 nM and 754 nM, respectively.

With `CC(C)(C)OC(=O)N1C(=O)c2ccc(NC(=O)Nc3ccc(-c4nc(N5CCOCC5)nc(N5CCOCC5)n4)cc3)cc2C1=O`, the IC50 in [5] is 379 nM.

For `O=C(Nc1ccc(-c2nc(N3C4CCC3COC4)nc(N3C4CCC3COC4)n2)cc1)Nc1ccc2c(c1)COC2=O`, the IC50 in data set [1] was above 10000 nM; in [4], 1.2 nM; in data set [2], above 10000 nM; in [6], above 10000 nM; in data set [7], above 10000 nM; in data set [3], above 10000 nM. Also, the IC50 in data set [8] is above 30000 nM; in data set [9], above 10000 nM; in [10], above 10000 nM; in [11], above 10000 nM.

Turning to `O=C(Nc1ccc(-c2nc(N3CCOCC3)nc(N3C4CCC3COC4)n2)cc1)Nc1ccc2c(c1)COC2=O`, the IC50 in [12] is 890 nM; in data set [1] it was 1940 nM; in data set [15], 230 nM; in data set [4], 1.7 nM; in [2], 1830 nM; in data set [16] it was 732 nM. For the same compound, the IC50 is 2150 nM in data set [17]; 4430 nM in data set [18]; 782 nM in data set [3]; 130 nM in data set [19]; 354 nM in [5]. For the same compound, the IC50 at 48 h in [13] was 4590 nM. The selectivity ratio in data set [14] was 35.3.

With `C[C@H]1COCCN1c1nc(-c2ccc(NC(=O)Nc3ccc4c(c3)COC4=O)cc2)nc(N2C3CCC2COC3)n1`, the IC50 in [12] was found to be 1740 nM; in data set [15] it was 1080 nM; in data set [4], 4 nM; in data set [16], 5050 nM; in [17], 6030 nM; in data set [18], 3440 nM. The IC50 in [19] was determined as 5670 nM.

Regarding `O=C(Nc1ccc(-c2nc(N3CCOCC3)nc(N3CCOCC3)n2)cc1)Nc1ccc2c(c1)COC2=O`, the IC50 in [1] worked out at 162 nM; in [2], 248 nM; in data set [3], 129 nM.

For the compound `O=C(Nc1ccc(-c2nc(N3CCOCC3)nc(N3C4CCC3CNC4)n2)cc1)Nc1ccc2c(c1)COC2=O`, the IC50 is 1130 nM in data set [12]; 2270 nM in data set [15]; 20 nM in data set [4]; 770 nM in data set [16]; 12600 nM in data set [17]; 11900 nM in data set [18]. Also, the IC50 in data set [19] is above 100000 nM.

For `O=C(Nc1ccc(-c2nc(N3CCOCC3)nc(N3CCO[C@@H](CO)C3)n2)cc1)Nc1ccc2c(c1)COC2=O`, the values for the IC50 in [1], in data set [2] and in [3] were 228 nM, 234 nM and 157 nM, respectively.
